In patent US20060040871A1, “Bacterial transforming agent” (priority 2003, published 2006):

Tested on: MRSA
Experiment: MIC of methicillin for MRSA isolates grown with glycine or GBE (Table 1)
Assay type: cell-based, Staphylococcus aureus

`NCC(=O)O` [Glycine, glycine] was tested, and the “strains tested achieving the target MIC” value (0.2 M glycine, said of Table 1) was 50%, the MIC of methicillin (CD40 (EMRSA-1), glycine 0.02M (0.15%)) was 32 µg/mL and the MIC of methicillin (CD40 (EMRSA-1), glycine 0.2M (1.5%)) was 4 µg/mL. For the same compound, the MIC of methicillin (DS09 (EMRSA-1), glycine 0.02M (0.15%)) was 32 µg/mL, the MIC of methicillin (DS09 (EMRSA-1), glycine 0.2M (1.5%)) was 4 µg/mL and the MIC of methicillin (E15-97 (EMRSA-15), glycine 0.02M (0.15%)) was 32 µg/mL. The MIC of methicillin (E15-97 (EMRSA-15), glycine 0.2M (1.5%)) was 4 µg/mL, the MIC of methicillin (E16-96 (EMRSA-16), glycine 0.02M (0.15%)) was 32 µg/mL and the MIC of methicillin (E16-96 (EMRSA-16), glycine 0.2M (1.5%)) was 4 µg/mL. The MIC of methicillin (JF1-32 (EMRSA-1), glycine 0.02M (0.15%)) was 32 µg/mL, the MIC of methicillin (JF1-32 (EMRSA-1), glycine 0.2M (1.5%)) was 4 µg/mL and the MIC of methicillin (L265, glycine 0.02M (0.15%)) was 64 µg/mL. The MIC of methicillin (L265, glycine 0.2M (1.5%)) was 8 µg/mL, the MIC of methicillin (L266, glycine 0.02M (0.15%)) was 64 µg/mL and the MIC of methicillin (L266, glycine 0.2M (1.5%)) was 8 µg/mL. It also gave an MIC of methicillin (L267, glycine 0.02M (0.15%)) of 32 µg/mL, an MIC of methicillin (L267, glycine 0.2M (1.5%)) of 8 µg/mL and an MIC of methicillin (L268, glycine 0.02M (0.15%)) of 32 µg/mL. It also gave an MIC of methicillin (L268, glycine 0.2M (1.5%)) of 8 µg/mL, an MIC of methicillin (L269, glycine 0.02M (0.15%)) of 16 µg/mL and an MIC of methicillin (L269, glycine 0.2M (1.5%)) of 4 µg/mL. The MIC of methicillin (L270, glycine 0.02M (0.15%)) was 8 µg/mL, the MIC of methicillin (L270, glycine 0.2M (1.5%)) was 4 µg/mL and the MIC of methicillin (L271, glycine 0.02M (0.15%)) was 8 µg/mL. For the same compound, the MIC of methicillin (L271, glycine 0.2M (1.5%)) was 4 µg/mL, the MIC of methicillin (L272, glycine 0.02M (0.15%)) was 16 µg/mL and the MIC of methicillin (L272, glycine 0.2M (1.5%)) was 2 µg/mL. It also gave an MIC of methicillin (L273, glycine 0.02M (0.15%)) of 8 µg/mL, an MIC of methicillin (L273, glycine 0.2M (1.5%)) of 4 µg/mL and an MIC of methicillin (L274, glycine 0.02M (0.15%)) of 16 µg/mL. For the same compound, the MIC of methicillin (L274, glycine 0.2M (1.5%)) was 4 µg/mL, the MIC of methicillin (L275, glycine 0.02M (0.15%)) was 32 µg/mL and the MIC of methicillin (L275, glycine 0.2M (1.5%)) was 8 µg/mL. For the same compound, the MIC of methicillin (L276, glycine 0.02M (0.15%)) was 16 µg/mL, the MIC of methicillin (L276, glycine 0.2M (1.5%)) was 4 µg/mL and the MIC of methicillin (L277, glycine 0.02M (0.15%)) was 8 µg/mL. The MIC of methicillin (L277, glycine 0.2M (1.5%)) was 4 µg/mL, the MIC of methicillin (L278, glycine 0.02M (0.15%)) was 64 µg/mL and the MIC of methicillin (L278, glycine 0.2M (1.5%)) was 16 µg/mL. The MIC of methicillin (L279, glycine 0.02M (0.15%)) was 64 µg/mL, the MIC of methicillin (L279, glycine 0.2M (1.5%)) was 2 µg/mL and the MIC of methicillin (L280, glycine 0.02M (0.15%)) was 16 µg/mL. It also gave an MIC of methicillin (L280, glycine 0.2M (1.5%)) of 4 µg/mL, an MIC of methicillin (L281, glycine 0.02M (0.15%)) of 32 µg/mL and an MIC of methicillin (L281, glycine 0.2M (1.5%)) of 4 µg/mL. The MIC of methicillin (L282, glycine 0.02M (0.15%)) was 32 µg/mL, the MIC of methicillin (L282, glycine 0.2M (1.5%)) was 4 µg/mL and the MIC of methicillin (L283, glycine 0.02M (0.15%)) was 32 µg/mL. For the same compound, the MIC of methicillin (L283, glycine 0.2M (1.5%)) was 4 µg/mL, the MIC of methicillin (L284, glycine 0.02M (0.15%)) was 32 µg/mL and the MIC of methicillin (L284, glycine 0.2M (1.5%)) was 2 µg/mL. For the same compound, the MIC of methicillin (L285, glycine 0.02M (0.15%)) was 32 µg/mL, the MIC of methicillin (L285, glycine 0.2M (1.5%)) was 4 µg/mL and the MIC of methicillin (L286, glycine 0.02M (0.15%)) was 32 µg/mL. It also gave an MIC of methicillin (L286, glycine 0.2M (1.5%)) of 4 µg/mL, an MIC of methicillin (L287, glycine 0.02M (0.15%)) of 32 µg/mL and an MIC of methicillin (L287, glycine 0.2M (1.5%)) of 4 µg/mL. It also gave an MIC of methicillin (L288, glycine 0.02M (0.15%)) of 32 µg/mL, an MIC of methicillin (L288, glycine 0.2M (1.5%)) of 4 µg/mL and an MIC of methicillin (L289, glycine 0.02M (0.15%)) of 32 µg/mL. The MIC of methicillin (L289, glycine 0.2M (1.5%)) was 4 µg/mL, the MIC of methicillin (L290, glycine 0.02M (0.15%)) was 32 µg/mL and the MIC of methicillin (L290, glycine 0.2M (1.5%)) was 4 µg/mL. It also gave an MIC of methicillin (L291, glycine 0.02M (0.15%)) of 32 µg/mL, an MIC of methicillin (L291, glycine 0.2M (1.5%)) of 4 µg/mL and an MIC of methicillin (L292, glycine 0.02M (0.15%)) of 32 µg/mL. The MIC of methicillin (L292, glycine 0.2M (1.5%)) was 4 µg/mL, the MIC of methicillin (L293, glycine 0.02M (0.15%)) was 32 µg/mL and the MIC of methicillin (L293, glycine 0.2M (1.5%)) was 4 µg/mL. It also gave an MIC of methicillin (L294, glycine 0.02M (0.15%)) of 32 µg/mL, an MIC of methicillin (L294, glycine 0.2M (1.5%)) of 4 µg/mL and an MIC of methicillin (MC01 (EMRSA-1), glycine 0.02M (0.15%)) of 32 µg/mL. The MIC of methicillin (MC01 (EMRSA-1), glycine 0.2M (1.5%)) was 4 µg/mL, the MIC of methicillin (NCTC 12493, glycine 0.02M (0.15%)) was 0.12 µg/mL and the MIC of methicillin (NCTC 12493, glycine 0.2M (1.5%)) was 0.06 µg/mL. The MIC of methicillin (PS3-32 (EMRSA-1), glycine 0.02M (0.15%)) was 32 µg/mL, the MIC of methicillin (PS3-32 (EMRSA-1), glycine 0.2M (1.5%)) was 4 µg/mL and the MIC of methicillin (SN31 (EMRSA-1), glycine 0.02M (0.15%)) was 32 µg/mL. For the same compound, the MIC of methicillin (SN31 (EMRSA-1), glycine 0.2M (1.5%)) was 4 µg/mL, the MIC of methicillin (ST11 (EMRSA-1), glycine 0.02M (0.15%)) was 32 µg/mL and the MIC of methicillin (ST11 (EMRSA-1), glycine 0.2M (1.5%)) was 4 µg/mL. The MIC of methicillin (SW2-32 (EMRSA-1), glycine 0.02M (0.15%)) was 32 µg/mL and the MIC of methicillin (SW2-32 (EMRSA-1), glycine 0.2M (1.5%)) was 4 µg/mL.
